Test results taken from patent US10023570B2 (Array BioPharma, Inc., priority 2015, dated 2018).

Target: human KDR protein in HEK-293 cells (Homo sapiens (Human), UniProt P35968)
Assay: KDR Cell Assay (phospho-KDR in HEK-293 cells expressing inducible KDR)
Format: cell-based
Details: pKDR Cell HEK 10% FBS IC50, HEK-293 cells expressing inducible KDR, VEGF stimulated
Summary of the method: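 HEK-293 cells with inducible human KDR were treated with compound for 1 h in DMEM (0.25% DMSO final), then lysed. Phospho-KDR was quantified by Meso Scale immunoassay, expressed as percent of control, and IC50 taken where a 4-parameter logistic fit crossed 50 POC.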

human KDR protein in HEK-293 cells, sequence (P35968 20-1356): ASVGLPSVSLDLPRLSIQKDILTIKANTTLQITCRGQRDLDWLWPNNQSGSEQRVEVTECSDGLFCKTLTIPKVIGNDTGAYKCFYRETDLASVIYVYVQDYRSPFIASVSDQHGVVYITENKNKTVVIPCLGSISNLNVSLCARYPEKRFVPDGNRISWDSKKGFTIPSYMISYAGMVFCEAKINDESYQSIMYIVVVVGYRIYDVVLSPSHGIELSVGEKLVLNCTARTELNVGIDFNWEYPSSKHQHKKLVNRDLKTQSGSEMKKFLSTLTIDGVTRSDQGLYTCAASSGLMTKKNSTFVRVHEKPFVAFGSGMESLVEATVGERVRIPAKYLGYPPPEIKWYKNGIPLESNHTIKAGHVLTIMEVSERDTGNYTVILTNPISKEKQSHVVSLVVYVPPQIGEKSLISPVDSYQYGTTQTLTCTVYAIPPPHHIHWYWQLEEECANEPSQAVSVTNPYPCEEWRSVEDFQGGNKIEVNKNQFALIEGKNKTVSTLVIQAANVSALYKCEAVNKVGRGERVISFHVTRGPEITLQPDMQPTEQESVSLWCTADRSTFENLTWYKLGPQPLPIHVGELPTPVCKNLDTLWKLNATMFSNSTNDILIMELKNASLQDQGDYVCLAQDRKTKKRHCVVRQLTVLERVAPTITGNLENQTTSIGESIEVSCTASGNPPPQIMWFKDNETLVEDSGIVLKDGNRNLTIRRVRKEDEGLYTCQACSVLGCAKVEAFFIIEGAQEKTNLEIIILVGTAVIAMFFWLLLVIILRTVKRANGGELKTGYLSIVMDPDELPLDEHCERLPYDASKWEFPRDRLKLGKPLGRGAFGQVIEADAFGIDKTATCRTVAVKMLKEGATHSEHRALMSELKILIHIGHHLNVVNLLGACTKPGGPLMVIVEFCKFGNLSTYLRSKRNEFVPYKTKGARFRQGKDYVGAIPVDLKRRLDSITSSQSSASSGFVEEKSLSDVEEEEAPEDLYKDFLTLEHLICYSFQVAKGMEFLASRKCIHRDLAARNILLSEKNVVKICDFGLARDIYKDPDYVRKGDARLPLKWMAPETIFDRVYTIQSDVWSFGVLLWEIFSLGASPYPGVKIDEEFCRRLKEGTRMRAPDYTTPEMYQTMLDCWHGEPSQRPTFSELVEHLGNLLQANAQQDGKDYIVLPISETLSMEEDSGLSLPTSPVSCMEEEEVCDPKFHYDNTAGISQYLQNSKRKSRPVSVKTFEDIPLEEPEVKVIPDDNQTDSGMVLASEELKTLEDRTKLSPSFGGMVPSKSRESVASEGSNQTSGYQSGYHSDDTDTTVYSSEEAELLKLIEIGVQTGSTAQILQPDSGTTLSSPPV

Compound	IC50 (10% FBS)	IC50
Cn1cc(-c2cc(-c3ccc(N4CCN(C(=O)Cc5ccc(F)cn5)CC4)nc3)c3c(C#N)cnn3c2)cn1 [Example 360, 4-(6-(4-(2-(5-fluoropyridin-2-yl)acetyl)piperazin-1-yl)pyridin-3-yl)-6-(1-methyl-1H-pyrazol-4-yl)pyrazolo[1,5-a]pyridine-3-carbonitrile bis(2,2,2-trifluoroacetate)]	385 nM	
Cn1cc(-c2cc(-c3ccc(N4CCN(C(=O)CN5CCOCC5)CC4)nc3)c3c(C#N)cnn3c2)cn1 [Example 362, 6-(1-methyl-1H-pyrazol-4-yl)-4-(6-(4-(2-morpholinoacetyl)piperazin-1-yl)pyridin-3-yl)pyrazolo[1,5-a]pyridine-3-carbonitrile bis(2,2,2-trifluoroacetate)]	1860 nM	
Cn1cc(-c2cc(-c3ccc(N4CCN(C(=O)C(c5ccccc5)N5CCOCC5)CC4)nc3)c3c(C#N)cnn3c2)cn1 (stereo not shown) [Example 363, 6-(1-methyl-1H-pyrazol-4-yl)-4-(6-(4-(2-morpholino-2-phenylacetyl)piperazin-1-yl)pyridin-3-yl)pyrazolo[1,5-a]pyridine-3-carbonitrile bis(2,2,2-trifluoroacetate)]	2640 nM	
CCN(CC)C(C(=O)N1CCN(c2ccc(-c3cc(-c4cnn(C)c4)cn4ncc(C#N)c34)cn2)CC1)c1ccccc1 (stereo not shown) [Example 364, 4-(6-(4-(2-(diethylamino)-2-phenylacetyl)piperazin-1-yl)pyridin-3-yl)-6-(1-methyl-1H-pyrazol-4-yl)pyrazolo[1,5-a]pyridine-3-carbonitrile bis(2,2,2-trifluoroacetate)]	4360 nM	
Cn1cc(-c2cc(-c3ccc(N4CCN(C(=O)Cc5ccc(C#N)cc5)CC4)nc3)c3c(C#N)cnn3c2)cn1 [Example 365, 4-(6-(4-(2-(4-cyanophenyl)acetyl)piperazin-1-yl)pyridin-3-yl)-6-(1-methyl-1H-pyrazol-4-yl)pyrazolo[1,5-a]pyridine-3-carbonitrile 2,2,2-trifluoroacetate]	597 nM	
COCCn1ccc(C(=O)N2CCN(c3ccc(-c4cc(-c5cnn(C)c5)cn5ncc(C#N)c45)cn3)CC2)n1 [Example 366, 4-(6-(4-(1-(2-methoxyethyl)-1H-pyrazole-3-carbonyl)piperazin-1-yl)pyridin-3-yl)-6-(1-methyl-1H-pyrazol-4-yl)pyrazolo[1,5-a]pyridine-3-carbonitrile bis(2,2,2-trifluoroacetate)]	422 nM	
CCCc1onc(C)c1C(=O)N1CCN(c2ccc(-c3cc(-c4cnn(C)c4)cn4ncc(C#N)c34)cn2)CC1 [Example 367, 4-yl)-4-(6-(4-(3-methyl-5-6-(1-methyl-1H-pyrazol-propylisoxazole-4-carbonyl)piperazin-1-yl)pyridin-3-yl)pyrazolo[1,5-a]pyridine-3-carbonitrile 2,2,2-trifluoroacetate]	355 nM	
Cn1cc(-c2cc(-c3ccc(N4CCN(C(=O)C(c5ccccc5)N5CCCCC5)CC4)nc3)c3c(C#N)cnn3c2)cn1 (stereo not shown) [Example 368, 6-(1-methyl-1H-pyrazol-4-yl)-4-(6-(4-(2-phenyl-2-(piperidin-1-yl)acetyl)piperazin-1-yl)pyridin-3-yl)pyrazolo[1,5-a]pyridine-3-carbonitrile bis(2,2,2-trifluoroacetate)]	1850 nM	
Cn1cc(-c2cc(-c3ccc(N4CCN(C(=O)C5(c6cccnc6)CC5)CC4)nc3)c3c(C#N)cnn3c2)cn1 [Example 369, 6-(1-methyl-1H-pyrazol-4-yl)-4-(6-(4-(1-(pyridine-3-yl)cyclopropane-1-carbonyl)piperazin-1-yl)pyridin-3-yl)pyrazolo[1,5-a]pyridine-3-carbonitrile bis(2,2,2-trifluoroacetate)]	1270 nM	
Cn1cc(-c2cc(-c3ccc(N4CCN(C(=O)c5cc(C6CC6)[nH]n5)CC4)nc3)c3c(C#N)cnn3c2)cn1 [Example 370, 4-(6-(4-(5-cyclopropyl-1H-pyrazole-3-carbonyl)piperazin-1-yl)pyridin-3-yl)-6-(1-methyl-1H-pyrazol-4-yl)pyrazolo[1,5-a]pyridine-3-carbonitrile bis(2,2,2-trifluoroacetate)]	29.8 nM	
CO[C@](C(=O)N1CCN(c2ccc(-c3cc(-c4cnn(C)c4)cn4ncc(C#N)c34)cn2)CC1)(c1ccccc1)C(F)(F)F [Example 371, (S)-6-(1-methyl-1H-pyrazol-4-yl)-4-(6-(4-(3,3,3-trifluoro-2-methoxy-2-phenylpropanoyl)piperazin-1-yl)pyridin-3-yl)pyrazolo[1,5-a]pyridine-3-carbonitrile]		1910 nM
Cn1cc(-c2cc(-c3ccc(N4CCN(C(=O)[C@@H](CO)c5ccccc5)CC4)nc3)c3c(C#N)cnn3c2)cn1 [Example 373, (R)-4-(6-(4-(3-hydroxy-2-phenylpropanol)piperazin-1-yl)pyridin-3-yl)-6-(1-methyl-1H-pyrazol-4-yl)pyrazolo[1,5-a]pyridine-3-carbonitrile]		1820 nM
Cn1cc(-c2cc(-c3ccc(N4CCN(C(=O)N5CC[C@@H](c6ccccc6)C5)CC4)nc3)c3c(C#N)cnn3c2)cn1 [Example 375, (S)-6-(1-methyl-1H-pyrazol-4-yl)-4-(6-(4-(3-phenylpyrrolidine-1-carbonyl)piperazin-1-yl)pyridin-3-yl)pyrazolo[1,5-a]pyridine-3-carbonitrile]		841 nM
COC1CCN(C(=O)N2CCN(c3ccc(-c4cc(-c5cnn(C)c5)cn5ncc(C#N)c45)cn3)CC2)CC1 [Example 376, 4-(6-(4-(4-methoxypiperidine-1-carbonyl)piperazin-1-yl)pyridin-3-yl)-6-(1-methyl-1H-pyrazol-4-yl)pyrazolo[1,5-a]pyridine-3-carbonitrile]		1830 nM
CCCCN(C(=O)N1CCN(c2ccc(-c3cc(-c4cnn(C)c4)cn4ncc(C#N)c34)cn2)CC1)c1ccccc1 [Example 377, N-butyl-4-(5-(3-cyano-6-(1-methyl-1H-pyrazol-4-yl)pyrazolo[1,5-a]pyridin-4-yl)pyridine-2-yl)-N-phenylpiperazine-1-carboxamide]		2030 nM
Cn1cc(-c2cc(-c3ccc(N4CCN(C(=O)N5CC[C@H](c6ccccc6)C5)CC4)nc3)c3c(C#N)cnn3c2)cn1 [Example 378, (R)-6-(1-methyl-1H-pyrazol-4-yl)-4-(6-(4-(3-phenylpyrrolidine-1-carbonyl)piperazin-1-yl)pyridin-3-yl)pyrazolo[1,5-a]pyridine-3-carbonitrile]		467 nM
Cn1cc(-c2cc(-c3ccc(N4CCN(C(=O)N5CC6CC6C5)CC4)nc3)c3c(C#N)cnn3c2)cn1 (stereo not shown) [Example 380, 4-(6-(4-(3-azabicyclo[3.1.0]hexane-3-carbonyl)piperazin-1-yl)pyridin-3-yl)-6-(1-methyl-1H-pyrazol-4-yl)pyrazolo[1,5-a]pyridine-3-carbonitrile]		555 nM
Cn1cc(-c2cc(-c3ccc(N4CCN(C(=O)N5CCN6CCCC6C5)CC4)nc3)c3c(C#N)cnn3c2)cn1 (stereo not shown) [Example 381, 6-(1-methyl-1H-pyrazol-4-yl)-4-(6-(4-(octahydropyrrolo[1,2-a]pyrazine-2-carbonyl)piperazin-1-yl)pyridin-3-yl)pyrazolo[1,5-a]pyridine-3-carbonitrile]		811 nM
COc1ccccc1N(C)C(=O)N1CCN(c2ccc(-c3cc(-c4cnn(C)c4)cn4ncc(C#N)c34)cn2)CC1 [Example 382, 4-(5-(3-cyano-6-(1-methyl-1H-pyrazol-4-yl)pyrazolo[1,5-a]pyridin-4-yl)pyridine-2-yl)-N-(2-methoxyphenyl)-N-methylpiperazine-1-carboxamide]		1710 nM
